Reference: US5436254A, “Carbostyril derivatives” (Otsuka Pharmaceutical Company, Ltd., priority 1989, dated 1995)

These compounds were tested against V1 receptor (Rattus norvegicus, UniProt P30560) (assay: biochemical).
Assay type: binding
Description: Experiment 1: V1 receptor binding assay
Using rat liver plasma membrane preparations prepared according to Ichihara's method [cf: Akira Ichihara, J. Bio. Chem., 258 9283 (1983)], the plasma membrane (50000 dpm, 2×10^-10 M) of [H]^3 -Arg-vasopressin and a test compound (100 ng, 10^-7 -10^-4 M) are incubated at 37° C. for 10 minutes in 100 mM Tris-HCl buffer pH: 8.0 (250 μl) containing 5 mM MgCl2, 1 mM EDTA and 0.1% BSA. After incubation, the mixture is filtered three times using the glass filter (GF/F) so as to separate the membrane preparation combining with vasopressin and then washed with the buffer (5 ml). This glass filter is taken out and mixed with liquid scintillation cocktail. The amount of [H]^3 -vasopressin combining with the membrane is measured by liquid scintillation counter and the rate of the inhibitory effect of the test compound is estimated according to the following equation. [formula] C^1 : The amount of [H]^3 -vasopressin combining with the membrane in the presence of the test compound (known amount).
C^0 : The amount of [H]^3 -vasopressin combining with the membrane in the absence of the test compound.
B^1 : The amount of [H]^3 -vasopressin combining with the membrane in the presence of the excess amount of vasopressin (10^-6 M).

Chain of V1 receptor (P30560 whole entry): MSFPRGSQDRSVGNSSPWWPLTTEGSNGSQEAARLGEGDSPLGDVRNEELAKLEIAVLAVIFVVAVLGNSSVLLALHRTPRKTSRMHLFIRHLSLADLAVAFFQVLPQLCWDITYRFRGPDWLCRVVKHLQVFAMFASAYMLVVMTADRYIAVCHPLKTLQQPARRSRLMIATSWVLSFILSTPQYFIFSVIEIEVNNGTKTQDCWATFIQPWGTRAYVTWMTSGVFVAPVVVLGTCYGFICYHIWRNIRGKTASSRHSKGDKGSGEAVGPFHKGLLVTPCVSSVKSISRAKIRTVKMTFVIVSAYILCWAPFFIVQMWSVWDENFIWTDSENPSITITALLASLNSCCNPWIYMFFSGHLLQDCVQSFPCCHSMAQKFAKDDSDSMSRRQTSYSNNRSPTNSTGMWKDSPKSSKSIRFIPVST

Q: How did the IC50 turn out when `COC(=O)NCCCCOc1ccc(C(=O)N2CCC(N3C(=O)CCc4ccccc43)CC2)cc1` [Example 27, 1-{1-[4-(4-Methoxycarbonylaminobutoxy)benzoyl]-4-piperidinyl}-3,4-dihydrocarbostyril] was run?
A: 270 nM

Q: Which IC50 does the source give for `CN(C)CCCOc1ccc(C(=O)N2CCC(N3C(=O)CCc4ccccc43)CC2)cc1` [Example 17, 1-{1-[4-(3-Dimethylaminopropoxy)benzoyl]-4-piperidinyl}-3,4-dihydrocarbostyril] here?
A: 430 nM

Q: `O=C(c1ccc(C=NO)cc1)N1CCC(N2C(=O)CCc3ccccc32)CC1` [Example 108, 1-[1-(4-Hydroxyiminomethylbenzoyl)-4-piperidinyl]-3,4-dihydrocarbostyril] was tested. Which IC50 did it give?
A: 1400 nM

Q: Which IC50 does the source give for `CCOc1ccc(C(=O)N2CCC(N3C(=O)CCc4c(F)cccc43)CC2)c(OC)c1` [Example 306, 5-Fluoro-1-[1-(2-methoxy-4-ethoxybenzoyl)-4-piperidinyl}-3,4-dihydrocarbostyril] here?
A: 84 nM

Q: `O=C(c1ccc(OCCCCO)cc1)N1CCC(N2C(=O)CCc3ccccc32)CC1` [Example 36, 1-{1-[4-(4-Hydroxybutoxy)benzoyl]-4-piperidinyl}-3,4-dihydrocarbostyril] was tested. Which IC50 did it give?
A: 370 nM

Q: Which IC50 does the source give for `O=C(c1ccc(OCCCCN2CCN(Cc3ccccc3)CC2)cc1)N1CCC(N2C(=O)CCc3ccccc32)CC1` [Example 156, 1-{1-[4-[(4-Benzyl-1-piperazinyl)butoxy]benzoyl]-4-piperidinyl}-3,4-dihydrocarbostyril] here?
A: 180 nM

Q: With `NC(=O)CCCCCCCOc1ccc(C(=O)N2CCC(N3C(=O)CCc4ccccc43)CC2)cc1` [Example 15, 1-{1-[4-(7-Carbamoylheptyloxy)benzoyl]-4-piperidinyl}-3,4-dihydrocarbostyril] as the compound, how does the IC50 read?
A: 260 nM

Q: With `O=C(c1ccc(OCCCCCSc2ccncc2)cc1)N1CCC(N2C(=O)CCc3ccccc32)CC1` [Example 283, 1-{1-(4-[5-(4-Pyridylthio)pentyloxy]benzoyl)-4-piperidinyl}-3,4-dihydrocarbostyril] as the compound, how does the IC50 read?
A: 610 nM

Q: Which IC50 does the source give for `COc1cc(OCCCCC(=O)N2CC[S+]([O-])CC2)ccc1C(=O)N1CCC(N2C(=O)CCc3ccccc32)CC1` [Example 295, 1-{1-(2-Methoxy-4-[4-(4-oxothiomorpholino)carbonylbutyloxy)benzoyl]-4-piperidinyl}-3,4-dihydrocarbostyril] here?
A: 77 nM

Q: How did the IC50 turn out when `C=CCN1CCN(CCCCOc2ccc(C(=O)N3CCC(N4C(=O)CCc5ccccc54)CC3)cc2)CC1` [Example 227, 1-{1-(4-[4-(4-Allyl-1-piperazinyl)butoxy]benzoyl)-4-piperidinyl)-3,4-dihydrocarbostyril] was run?
A: 130 nM

Q: How did the IC50 turn out when `COc1cc(OCCCCC(N)=O)ccc1C(=O)N1CCC(N2C(=O)CCc3ccccc32)CC1` [Example 294, 1-{1-[2-Methoxy-4-(4-carbamoylbutoxy)benzoyl]-4-piperidinyl}-3,4-dihydrocarbostyril] was run?
A: 170 nM

Q: How did the IC50 turn out when `C=CCN(C)CCCCCOc1ccc(C(=O)N2CCC(N3C(=O)CCc4ccccc43)CC2)cc1` [Example 245, 1-{1-(4-[5-(N-Allyl-N-methylamino)pentyloxy]benzoyl)-4-piperidinyl}-3,4-dihydrocarbostyril] was run?
A: 54 nM

Q: Which IC50 does the source give for `O=C(c1ccc(OCCCCCS(=O)(=O)c2ccc([N+](=O)[O-])cc2)cc1)N1CCC(N2C(=O)CCc3ccccc32)CC1` [Example 285, 1-{1-(4-[5-(4-Nitrophenylsulfonyl)pentyloxy]benzoyl)-4-piperidinyl}-3,4-dihydrocarbostyril] here?
A: 230 nM

Q: How did the IC50 turn out when `O=C(c1ccc(OCCCCCN2CCCCC2CO)cc1)N1CCC(N2C(=O)CCc3ccccc32)CC1` (stereo not shown) [Example 241, 1-{1-(4-[5-(2-Hydroxymethyl-1-piperidinyl)pentyloxy]benzoyl)-4-piperidinyl}-3,4-dihydrocarbostyril] was run?
A: 21 nM

Q: With `NC(=O)CCCNc1ccc(C(=O)N2CCC(N3C(=O)CCc4ccccc43)CC2)cc1` [Example 88, 1-{1-[4-(3-Carbamoylpropylamino)benzoyl]-4-piperidinyl)-3,4-dihydrocarbostyril] as the compound, how does the IC50 read?
A: 1000 nM

Q: With `CC(C)=CCCC(C)=CC(=O)N1CCC(N2C(=O)CCc3ccccc32)CC1` [Example 114, 1-[1-(2,6-Dimethyl-1,5-heptadiene-1-carbonyl)-4-piperidinyl]-3,4-dihydrocarbostyril] as the compound, how does the IC50 read?
A: 1500 nM

Q: How did the IC50 turn out when `CC(=O)OCCCCc1ccc(C(=O)N2CCC(N3C(=O)CCc4ccccc43)CC2)cc1` [Example 124, 1-{1-[4-(4-Acetoxybutyl)benzoyl]-4-piperidinyl}-3,4-dihydrocarbostyril] was run?
A: 320 nM

Q: With `CN(C)C(=O)CCCOc1ccc(C(=O)N2CCC(N3C(=O)CCc4ccccc43)CC2)cc1` [Example 148, 1-{1-[4-(3-Dimethylaminocarbonylpropoxy)benzoyl]-4-piperidinyl}-3,4-dihydrocarbostyril] as the compound, how does the IC50 read?
A: 360 nM

Q: How did the IC50 turn out when `CC(=O)Nc1ccc(C(=O)NCCCCCOc2ccc(C(=O)N3CCC(N4C(=O)CCc5ccccc54)CC3)cc2)cc1` [Example 259, 1-{1-(4-[5-(4-Acetylaminobenzoyl)aminopentyloxy]benzoyl)-4-piperidinyl}-3,4'-dihydrocarbostyril] was run?
A: 110 nM

Q: Which IC50 does the source give for `CCN(CC)CCCCCOc1ccc(C(=O)N2CCC(N3C(=O)CCc4ccccc43)CC2)c(OCCCCCN(CC)CC)c1` [Example 292, 1-{1-[2,4-Di(5-diethylaminopentyloxy]benzoyl)-4-piperidinyl}-3,4-dihydrocarbostyril] here?
A: 77 nM

Q: For `O=C(O)C1CCN(C(=O)CCCCCOc2ccc(C(=O)N3CCC(N4C(=O)CCc5ccccc54)CC3)cc2)CC1` [Example 274, 1-{1-(4-[5-(4-Carboxy-1-piperidinylcabonyl)pentyloxy]benzoyl)-4-piperidinyl}-3,4-dihydrocarbostyril], which IC50 is on record?
A: 490 nM

Q: Which IC50 does the source give for `CNc1ccc(C(=O)NCCCCOc2ccc(C(=O)N3CCC(N4C(=O)CCc5ccccc54)CC3)cc2)cc1` [Example 126, 1-[1-{4-[(4-Methylaminobenzoyl)aminobutoxy]-benzoyl}-4-piperidinyl]-3,4-dihydrocarbostyril] here?
A: 360 nM

Q: `COc1ccc(C(=O)N2CCC(N3C(=O)CCc4cc(F)ccc43)CC2)c(OC)c1` [Example 79, 6-Fluoro-1-[1-(2,4-dimethoxybenzoyl)-4-piperidinyl]-3,4-dihydrocarbostyril] was tested. Which IC50 did it give?
A: 500 nM

Q: For `COc1cc(SC)ccc1C(=O)N1CCC(N2C(=O)CCc3ccc(F)cc32)CC1` [Example 80, 7-Fluoro-1-[1-(2-methoxy-4-methylthiobenzoyl)-4-piperidinyl]-3,4-dihydrocarbostyril], which IC50 is on record?
A: 80 nM

Q: Which IC50 does the source give for `NC(=O)CC[C@H](NC(=O)CCCCCOc1ccc(C(=O)N2CCC(N3C(=O)CCc4ccccc43)CC2)cc1)C(N)=O` [Example 150, 1-{1-[4-(5-[1-(S),3-Dicarbamoyl]propylaminocarbonylpentyloxy)benzoyl]-4-piperidinyl}-3,4-dihydrocarbostyril] here?
A: 96 nM

Q: How did the IC50 turn out when `CCOC(=O)CN(C)c1cc(OC)ccc1C(=O)N1CCC(N2C(=O)CCc3ccccc32)CC1` [Example 102, 1-{1-[4-Methoxy-2-(N-methyl-N-ethoxycarbonylmethylamino)benzoyl]-4-piperidinyl}-3,4-dihydrocarbostyril] was run?
A: 1100 nM

Q: Which IC50 does the source give for `O=C(CNCc1ccccc1)NCCCCCOc1ccc(C(=O)N2CCC(N3C(=O)CCc4ccccc43)CC2)cc1` [Example 256, 1-{1-(4-[5-(2-Benzylaminoacetylamino)pentyloxy]benzoyl)-4-piperidinyl}-3,4-dihydrocarbostyril] here?
A: 190 nM

Q: `O=C(c1ccc(OCCCO)cc1)N1CCC(N2C(=O)CCc3ccccc32)CC1` [Example 32, 1-{1-[4-(3-Hydroxypropoxy)benzoyl]-4-piperidinyl}-3,4-dihydrocarbostyril] was tested. Which IC50 did it give?
A: 460 nM

Q: Which IC50 does the source give for `COCc1ccc(C(=O)N2CCC(N3C(=O)CCc4ccccc43)CC2)cc1` [Example 109, 1-[1-(4-Methoxymethylbenzoyl)-4-piperidinyl]-3,4-dihydrocarbostyril] here?
A: 750 nM

Q: Which IC50 does the source give for `COc1cc(OCCCCC(=O)N2CCS(=O)(=O)CC2)ccc1C(=O)N1CCC(N2C(=O)CCc3ccccc32)CC1` [Example 296, 1-{1-(2-Methoxy-4-[4-(4,4-dioxothiomorpholino)carbonylbutyloxy]benzoyl]-4-piperidinyl}-3,4-dihydrocarbostyril] here?
A: 73 nM

Q: Which IC50 does the source give for `CC(=O)Nc1ccc(C(=O)NCCCOc2ccc(C(=O)N3CCC(N4C(=O)CCc5ccccc54)CC3)cc2)cc1` [Example 196, 1-(1-[4-(3-(4-Acetylaminobenzoyl)aminopropoxy)benzoyl]-4-piperidinyl}-3,4-dihydrocarbostyril] here?
A: 170 nM

Q: Which IC50 does the source give for `O=C(c1ccc(OCCCCC(O)CNCc2ccccc2)cc1)N1CCC(N2C(=O)CCc3ccccc32)CC1` (stereo not shown) [Example 170, 1-{1-[4-(5-Hydroxy-6-benzylaminohexyloxy)benzoyl]-4-piperidinyl}-3,4-dihydrocarbostyril] here?
A: 39 nM

Q: `O=C(c1ccc(OCCCCCCN2CCC(N3CCCCC3)CC2)cc1)N1CCC(N2C(=O)CCc3ccccc32)CC1` [Example 265, 1-(1-(4-[6-(4-(1-Piperidinyl)-1-piperidinyl)hexyloxy]benzoyl)-4-piperidinyl}-3,4-dihydrocarbostyril.dioxalate] was tested. Which IC50 did it give?
A: 19 nM

Q: How did the IC50 turn out when `CN(C)CCCNC(=O)CCCCCOc1ccc(C(=O)N2CCC(N3C(=O)CCc4ccccc43)CC2)cc1` [Example 197, 1-(1-[4-(5-(3-Dimethylaminopropyl)aminocarbonylpentyloxy)benzoyl]-4-piperidinyl}-3,4-dihydrocarbostyril] was run?
A: 35 nM

Q: Which IC50 does the source give for `O=C(CN1CCN(CCCOc2ccc(C(=O)N3CCC(N4C(=O)CCc5ccccc54)CC3)cc2)CC1)c1ccccc1` [Example 137, 1-[1-{4-[3-(4-Benzoylmethyl-1-piperazinyl)propoxy]benzoyl}-4-piperidinyl]-3,4-dihydrocarbostyril.dioxalate] here?
A: 120 nM

Q: `NC(=O)[C@H](Cc1ccc(O)cc1)NC(=O)CCCCCOc1ccc(C(=O)N2CCC(N3C(=O)CCc4ccccc43)CC2)cc1` [Example 146, 1-{1-[4-{5-[1-(S)-Carbamoyl-2-(4-hydroxyphenyl)]ethylaminocarbonylpentyloxy}benzoyl]-4-piperidinyl}-3,4-dihydrocarbostyril] was tested. Which IC50 did it give?
A: 73 nM

Q: How did the IC50 turn out when `O=C(c1ccc(OCCCCCS(=O)(=O)c2ncccn2)cc1)N1CCC(N2C(=O)CCc3ccccc32)CC1` [Example 281, 1-(1-(4-[5-(2-Pyrimidylsulfonyl)pentyloxy]benzoyl)-4-piperidinyl}-3,4-dihydrocarbostyril] was run?
A: 54 nM
